US6066642A, “Dihydropyridine-, pyridine-, benzopyran-4-one- and triazoloquinazoline derivative, their preparation and their use as adenosine receptor antagonists” (priority 1998, dated 2000)

What was measured:
A3 specific binding = A3 specific binding after blocking A1 and A2 specific binding sites with a xanthine amino congener; settings: A1 and A2 sites blocked with xanthine amino congener
Excerpt: Adenosine receptors have been implicated in the bronchoconstriction (BC) in allergic asthma.

U-937 cells [1] = assay: in situ end-labeling of fragmented nuclear DNA (TUNEL), U-937 cells; assay type: cell-based; settings: for fluorescent labeling of apoptotic cells, U-937: 50 nM, 24 h, approximately; for Percentage of apoptotic cells, U937, + Cl-IB-MECA: antagonist 50 nM plus Cl-IB-MECA 10 nM; for Percentage of apoptotic cells, U937: antagonist 50 nM
Experimental: (§1) Cells were fixed by immersing slides in 4% methanol-free formaldehyde in PBS at pH 7.4, 4° C., for 25 min. Fixed cells were permeabilized in 0.2% Triton® X-100 in PBS at 4° C. for 5 min. After preincubation with […] Promega equilibration buffer for 10 min at room temperature, the cells were covered with 50 μl TdT incubation buffer and a coverslip and maintained at 37° C. for 60 min inside the dark humidified chamber to protect from dry and direct light. In order to stop the reaction, the coverslip was removed and the slides were immersed in 2×SSC for 15 min at room temperature. The cells were restained by propidium iodide 1 μg/ml in PBS for 15 min. After every step, the cells were rinsed 2-3 times with fresh PBS for 5 min each. Finally, the glass slides were sealed with nail polish. The slides were stored at 4° C. in the dark.
(§2) The evidence that DNA strand breaks, characteristic of apoptosis, are induced by the A3 antagonists was obtained using in situ end-labelingin-situ of fragmented nuclear DNA by terminal deoxynucleotidyl transferase (TUNEL method, Cooke, H., Trends in Biotech., 10, 23 (1992)), which incorporates a fluorescent label at the 3'-ends. […] In the control cultures and in those treated with 10 nM Cl-IB-MECA alone, spontaneous apoptosis occured in only 5-7% of the cells (Table 17). […] The reversal of antagonist-induced apoptosis by the agonist is similar to that observed for the growth curves, except that both agonist and antagonist were applied at lower concentrations.

[2] = test system: bak protein in HL-60 cells; assay: expression of apoptosis-inducing protein bak by immunofluorescence, HL-60 cells; assay type: cell-based; settings: for bak labeling, HL-60: 24 hours
Experimental: (§3) Cells were fixed as following steps: 10 min with 1% formalin in PBS, 5 min with […] methanol and 2 min with ice cold acetone, then permebilized with 0.1% Nonidet P-40 for 20 min. After the preparation, the specimens were incubated step by step: 10% goat serum in PBS for 20 min, mouse monoclonal anti-bak antibody (5 μg/ml PBS-BSA) for 60 min, Rhodamine (TRITC)-conjugated AffiniPure Goat Anti-mouse IgG (H+L) in PBS-BSA for 60 min. The specimens were washed 3-5 times with PBS after every step. The glass slides were stored at 4° C. in the dark.
(§4) The mechanism of the apoptosis observed in response to either A3 agonists was investigated.

[3] = test system: bak in 1321N astrocytoma cells; assay: expression of bak, 1321N cells; assay type: cell-based; settings: 10 μM
Experimental: as §3
(§5) Various other cell lines were investigated for the expression of bak in response to the A3 agonist.

HL-60 cells [4] = assay: in situ end-labeling of fragmented nuclear DNA (TUNEL), HL-60 cells; assay type: cell-based; settings: for fluorescent labeling of apoptotic cells, HL-60: 50 nM, 24 h, approximately; for Percentage of apoptotic cells, HL-60, + Cl-IB-MECA: antagonist 50 nM plus Cl-IB-MECA 10 nM; for Percentage of apoptotic cells, HL-60: antagonist 50 nM
Experimental: as §1, §2

HL-60 cells [5] = assay: apoptosis by flow cytometric DNA analysis, HL-60 cells; assay type: cell-based
Experimental: DNA content analysis by flow cytometry:
(§8) Cells were fixed by adding ~10^7 cells suspended in 1 ml of PBS of 1 ml 80% ethanol at -20° C. and stored for 48-120 hrs. After the cells were washed twice with PBS, the cells were stained with 20 mg/ml chromomycin A3 dissolved in PBS containing 2 mM MgCl2 by incubation in subdued light (30 min; 4° C.). The cells were then analyzed using a FACScan flow cytometer (Becton Dickinson, Mountain View, Calif.).

U-937 cells [6] = assay: live cell counting with trypan blue (cell death/proliferation), U-937 cells; assay type: cell-based; settings: for growth curve with A3 antagonist plus Cl-IB-MECA, U-937: antagonist 0.5 μM plus 0.01 or 1.0 μM Cl-IB-MECA
Experimental: (§6) The HL-60 cells were maintained in RPMI 1640 supplmented with 10% fetal calf serum, 100 units/ml penicillin, […] streptomycin and 2 mM L-glutamine. The cells were split every third day, and 2 days before each experiment cultures were diluted to 2×10^5 cells/ml. For analysis of DNA content, aliquots of 2 ml were placed into 12-well flat-bottomed plates (Costar, Cambridge, Mass., U.S.A.) containing 2~6 μl test-compound solutions at defined concentrations or 6 μl DMSO (diluting medium). Live cell counting was carried out using 0.1% trypan blue.
(§7) In the latter assay, cell death was studied in HL-60 cells (FIGS. 11A-B) and in U-937 cells (FIGS. 11C-D) over a time course of 9 days. Cells in culture receiving no drug treatment proliferated geometrically until nearly the end of the experiment.

[7] = test system: bak in MCF7 breast adenocarcinoma cells; assay: expression of bak, MCF7 cells; assay type: cell-based; settings: 10 μM
Experimental: as §3, §5

[8] = test system: bak protein in U-937 cells; assay: expression of apoptosis-inducing protein bak by immunofluorescence, U-937 cells; assay type: cell-based; settings: for bak labeling, U-937: 24 hours
Experimental: as §3, §4

U-937 cells [9] = assay: apoptosis by flow cytometric DNA analysis, U-937 cells; assay type: cell-based
Experimental: DNA content analysis by flow cytometry:
as §8

HL-60 cells [10] = assay: live cell counting with trypan blue (cell death/proliferation), HL-60 cells; assay type: cell-based; settings: for growth curve with A3 antagonist plus Cl-IB-MECA, HL-60: antagonist 0.5 μM plus 0.01 or 1.0 μM Cl-IB-MECA
Experimental: as §6, §7

adenosine receptor = settings: [3H]cyclohexyladenosine and [3H]1,3-diethyl-8-phenylxanthine; cited from earlier work
adenosine receptors = settings: pancreatic islets; cited from earlier work
A2a receptors = target: T1, A2a receptors (Rattus norvegicus, UniProt P30543); assay: radioligand binding, displacement of specific [3H]CGS 21680 binding in rat striatal membranes; settings: Table 11; 10^-4 M; read-out: displacement of specific binding rA2A
T1 construct: Displacement of specific [^3 H]; from tissue; host or cells: rat striatal membranes
Experimental: ^b Displacement of specific [^3 H]
or as a percentage of specific binding displaced at 100 μM.

rabbit lung = assay: bronchoconstriction / dynamic compliance (Cdyn) in allergic rabbits; assay type: in vivo, New Zealand white rabbit; settings: antagonist 10^-5 M, 2 minute aerosol, co-administered with agonist
Experimental: New Zealand white pasteurella free rabbit litter mates were exposed to A3 adenosine agonist APNEA, IB-MECA, or Cl-IB-MECA and the percent change in dynamic compliance (Cdyn) was measured as a function of the adenosine dose using known procedures. […] Allergy was induced in the rabbits using dust mites.
The antagonist was administered at a constant dose of 10^-5 M through a 2 minute aerosilization, followed by a 15 minute wait before the measurement of dynamic compliance.

Female Mongolian gerbils = assay: bilateral carotid occlusion (stroke) in gerbils, survival and intact neurons; assay type: in vivo, Mongolian gerbil; settings: for survival rate after ischemia: 100 μg/kg 15 min after occlusion; for intact neurons: 100 μg/kg
Experimental: Control gerbils were injected with saline. The survival of the animals was followed as a function of time after ischemia.
The number of intact neurons was also counted.

[11] = 10 nM Cl-IB-MECA with either antagonist
[12] = 10 nM alone, range covers both cell lines and controls
[13] = Table 17, Cl-IB-MECA 10 nM, 48 hour
[14] = sublethal concentrations incl. 10 nM

T1 sequence (P30543 whole entry): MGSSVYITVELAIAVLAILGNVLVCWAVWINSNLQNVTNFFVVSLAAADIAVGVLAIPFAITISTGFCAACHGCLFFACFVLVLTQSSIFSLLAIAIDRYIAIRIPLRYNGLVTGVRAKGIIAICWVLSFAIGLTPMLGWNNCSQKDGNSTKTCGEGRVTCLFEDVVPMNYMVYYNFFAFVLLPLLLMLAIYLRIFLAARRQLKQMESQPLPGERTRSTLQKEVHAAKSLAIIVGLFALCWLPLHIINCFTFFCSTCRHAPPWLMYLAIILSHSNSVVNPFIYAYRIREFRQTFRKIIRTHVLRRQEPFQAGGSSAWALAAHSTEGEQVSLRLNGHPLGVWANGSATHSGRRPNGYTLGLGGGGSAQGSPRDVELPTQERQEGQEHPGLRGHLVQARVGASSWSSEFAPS

Nc1ccc(CCNc2ncnc3c2ncn3[C@@H]2O[C@H](CO)[C@@H](O)[C@H]2O)cc1 [APNEA]
displacement of A3 specific binding (A3 specific binding): A3 specific binding was displaced

CNC(=O)[C@H]1O[C@@H](n2cnc3c(NCc4cccc(I)c4)nc(Cl)nc32)[C@H](O)[C@@H]1O [Cl-IB-MECA, N^6-(3-iodobenzyl)-2-chloro-adenosine-5'-N-methyluronamide]
coadministration with antagonist, apoptotic cells, U-937 (U-937 cells [1]; [11]): suppressed the increase in apoptotic cells
apoptosis (TUNEL), Cl-IB-MECA alone, U-937 (U-937 cells [1]; [12]): 5-7%
DNA fragmentation labeling (TUNEL), U-937 (U-937 cells [1]; 30 μM): approximately 50%
Percentage of apoptotic cells, U937, Cl-IB-MECA alone (U-937 cells [1]; [13]): 5.6 Percentage
expression of bak, HL-60 ([2]; 30 μM): induced a significant level of expression of bak
expression of bak, HL-60 ([2]; ≤1 μM): not concentrations ≤1 μM
expression of bak, 1321N [3]: found to induce the expression of bak
coadministration with antagonist, apoptotic cells, HL-60 (HL-60 cells [4]; [11]): suppressed the increase in apoptotic cells
apoptosis (TUNEL), Cl-IB-MECA alone, HL-60 (HL-60 cells [4]; [12]): 5-7%
DNA fragmentation labeling (TUNEL), HL-60 (HL-60 cells [4]; 30 μM): approximately 50%
Percentage of apoptotic cells, HL-60, Cl-IB-MECA alone (HL-60 cells [4]; [13]): 7.1 Percentage
concentration at which plateau of apoptosis begins, HL-60 (HL-60 cells [5]; 48 hours): approximately 10 μM
plateau in the percent of apoptotic cells, HL-60 (HL-60 cells [5]; 48 hours): 30-50%
apoptosis in HL-60 cells (HL-60 cells [5]; high concentrations (≥μM)): caused apoptosis
apoptosis at lower concentrations, HL-60 (HL-60 cells [5]; ≤1 μM): did not significantly promote apoptosis
growth curve, U-937 (U-937 cells [6]; 0.01 or 1.0 μM alone, 9 days): no deviation from this growth curve was observed
effect of agonist on impairment of proliferation by antagonist, U-937 (U-937 cells [6]; [14]): reversed the impairment of cell proliferation
general cell death at lower concentrations, U-937 (U-937 cells [6]; ≤1 μM, trypan blue): did not significantly promote
expression of bak, MCF7 [7]: found to induce the expression of bak
expression of bak, U-937 ([8]; 30 μM): induced a significant level of expression of bak
expression of bak, U-937 ([8]; ≤1 μM): not concentrations ≤1 μM
concentration at which plateau of apoptosis begins, U-937 (U-937 cells [9]; 48 hours): approximately 10 μM
plateau in the percent of apoptotic cells, U-937 (U-937 cells [9]; 48 hours): 30-50%
apoptosis in U-937 cells (U-937 cells [9]; high concentrations (≥μM)): A similar response was observed
apoptosis at lower concentrations, U-937 (U-937 cells [9]; ≤1 μM): did not significantly promote apoptosis
growth curve, HL-60 (HL-60 cells [10]; 0.01 or 1.0 μM alone, 9 days): no deviation from this growth curve was observed
death of HL-60 cells in culture (HL-60 cells [10]; 20 or 40 μM, after 4 days): > 90%
effect of agonist on impairment of proliferation by antagonist, HL-60 (HL-60 cells [10]; [14]): reversed the impairment of cell proliferation
general cell death at lower concentrations, HL-60 (HL-60 cells [10]; ≤1 μM, trypan blue): did not significantly promote

COC(=O)C1=C(C)NC(C)=C(C(=O)OC)C1c1ccccc1[N+](=O)[O-] [Compound 60, nifedipine]
effect on adenosine receptor binding (adenosine receptor): potent in reducing the binding
interaction with adenosine receptors mediating inhibition of insulin secretion (adenosine receptors): may not interact with adenosine receptors

CCOC(=O)C1=C(C)NC(c2ccccc2)=C(C(=O)OCc2ccccc2)C1C#Cc1ccccc1 (stereo not drawn) [Compound 101]
fluorescent labeling of apoptotic cells, U-937 (U-937 cells [1]): 30-40%
Percentage of apoptotic cells, U937, + Cl-IB-MECA (U-937 cells [1]; Table 17, 48 hour): 10.4 Percentage
Percentage of apoptotic cells, U937 (U-937 cells [1]; Table 17, 48 hour): 27.3 Percentage
inhibition at 100 µM (A2a receptors): < 10%
bak labeling, HL-60 [2]: present
fluorescent labeling of apoptotic cells, HL-60 (HL-60 cells [4]): 30-40%
Percentage of apoptotic cells, HL-60, + Cl-IB-MECA (HL-60 cells [4]; Table 17, 48 hour): 11.6 Percentage
Percentage of apoptotic cells, HL-60 (HL-60 cells [4]; Table 17, 48 hour): 39.7 Percentage
growth curve with A3 antagonist plus Cl-IB-MECA, U-937 (U-937 cells [6]): the growth curves were nearly coincident with control curves
bak labeling, U-937 [8]: present
percent change in dynamic compliance (Cdyn) (rabbit lung): much reduced
growth curve with A3 antagonist plus Cl-IB-MECA, HL-60 (HL-60 cells [10]): the growth curves were nearly coincident with control curves
survival rate after ischemia (Female Mongolian gerbils; after 7 days): 90%
survival rate after ischemia (Female Mongolian gerbils; after 90 days): 80%
intact neurons (Female Mongolian gerbils; after 7 days): 75%
intact neurons (Female Mongolian gerbils; after 90 days): 90%

CN1C=CC2=C(CC(=O)O)Cn3nc(-c4ccccc4)nc3C2=C1 [Compound L-249313, 6-carboxymethyl-5,9-dihydro-9-methyl-2-phenyl-[1,2,4]triazolo[5,1-a][2,7]-naphthyridine]
fluorescent labeling of apoptotic cells, U-937 (U-937 cells [1]): 30-40%
Percentage of apoptotic cells, U937, + Cl-IB-MECA (U-937 cells [1]; Table 17, 48 hour): 10.9 Percentage
Percentage of apoptotic cells, U937 (U-937 cells [1]; Table 17, 48 hour): 30.8 Percentage
bak labeling, HL-60 [2]: present
fluorescent labeling of apoptotic cells, HL-60 (HL-60 cells [4]): 30-40%
Percentage of apoptotic cells, HL-60, + Cl-IB-MECA (HL-60 cells [4]; Table 17, 48 hour): 12.0 Percentage
Percentage of apoptotic cells, HL-60 (HL-60 cells [4]; Table 17, 48 hour): 31.2 Percentage
inhibition of proliferation, U-937 (U-937 cells [6]; 0.5 μM alone): general inhibition of proliferation of cells
growth curve with A3 antagonist plus Cl-IB-MECA, U-937 (U-937 cells [6]): the growth curves were nearly coincident with control curves
bak labeling, U-937 [8]: present
inhibition of proliferation, HL-60 (HL-60 cells [10]; 0.5 μM alone): general inhibition of proliferation of cells
growth curve with A3 antagonist plus Cl-IB-MECA, HL-60 (HL-60 cells [10]): the growth curves were nearly coincident with control curves

COc1ccc([C@@H]2Sc3ccccc3N(CCN(C)C)C(=O)[C@@H]2OC(C)=O)cc1 [diltiazem]
effect on adenosine receptor binding (adenosine receptor): negligible effects on adenosine receptor binding

COc1ccc(CCN(C)CCCC(C#N)(c2ccc(OC)c(OC)c2)C(C)C)cc1OC (stereo not drawn) [verapamil]
effect on adenosine receptor binding (adenosine receptor): negligible effects on adenosine receptor binding
interaction with adenosine receptors mediating inhibition of insulin secretion (adenosine receptors): may not interact with adenosine receptors
